Entries after “also recorded” stand apart in the source; their conditions may differ. Where two headings read alike, the source gives them in different places.
Assays:
[1] = Lymph node concentration in guinea pigs after subcutaneous administration (ICP-AES); assay type: in vivo, guinea pig; settings: 10 μmol/kg s.c., MW±SD, n=3
Description: The compounds according to the invention meet all of the requirements that are imposed by contrast media in indirect NMR lymphography: good local compatibility, quick removal from the injection site, quick and as complete an elimination as possible from the entire organism. They also show a high concentration over several lymph node stations and thus allow relevant diagnostic assessments. Thus, in the guinea pig model, a high concentration over several lymph node stations (popliteal, inguinal, iliac) after s.c. administration (2.5-10 μmol/kg of body weight, injection in the interdigital spaces of the hind paws) was shown. In especially suitable cases, gadolinium concentrations of, respectively, ≥200 or ≥300 μmol/l were thus obtained in the second (inguinal) and third (iliac) stations. Lymph node concentrations up to 1,000 μmol/l can usually be obtained with the compounds according to the invention.
The gadolinium complex of Example 19 was studied 30 minutes/90 minutes after subcutaneous administration (10 μmol of total gadolinium/kg of body weight, hind paw s.c.) to stimulated guinea pigs (complete Freund adjuvant; in each case 0.1 ml in the right and left upper and lower legs; 2 weeks before administration of the test substance) to determine their lymph node concentration in three successive lymph node stations (popliteal, inguinal, iliac). In this case, the results that are listed below (determination of gadolinium concentration using ICP-AES) are obtained:
Gd-Concentration [μmol/l] in three successive lymph node stations 30 and 90 minutes after interstitial administration of 10 μmol/kg (MW±SD, n=3)

[2] = Elimination of the contrast medium after s.c. administration (metal retention in organs); assay type: in vivo, guinea pig; settings: 7 d p.i., 10 μmol/kg s.c., MW±SD, n=2
Description: After subcutaneous administration of 10 μmol of total gadolinium (Example 19)/kg of body weight in the hind paw of the guinea pig, the retention of metal in the liver, in the kidneys and in the spleen was examined 7 days after administration.
Gd Concentration [% of Dose] in the Liver, Kidneys, Spleen (7 d p.i.) After Interstitial Administration of 10 μmol/kg (MW±SD, n=2)

[3] = Retention of the opacifying metal at the injection site; assay type: in vivo, guinea pig; settings: 10 μmol/kg s.c., MW±SD, n=3
Description: After s.c. administration of 10 μmol of total gadolinium (Example 19)/kg of body weight in the guinea pig's paw, the retention of metal at the injection site was studied at different times.
Gd-Concentration [% dose] at the Administration Site (Paw), After Interstitial Administration of 10 μmol/kg (MW±SD, n=3)

[4] = Blood elimination kinetics after one-time intravenous administration; assay type: in vivo, rats; settings: for Distribution volume Vss (MEAN) / Elimination half-life tβ (MEAN) / Total clearance CLtot (MEAN) / tα (MEAN): two-compartment model, n=3; for distribution volume in comparison to Dy-DTPA / elimination from the blood in comparison to Dy-DTPA: i.v., rats
Protocol: (§1) For this purpose, after one-time intravenous administration (via a caudal vein) of the substances (dose: ≈100 μmol of metal per kg of body weight), the substance concentration in the blood (based on the Gd or Dy content) was determined over a period of up to 120 minutes p.i. using ICP-AES. The pharmacokinetic parameters: distribution volume (Vss), total clearance (CLtot) and elimination half-life (tb) were calculated with a special computer program (TOPFIT 2.0; Thomae, Schering, Godecke), whereby a two-compartment distribution model was used as a basis.
The Gd and Dy contents in the blood were determined using ICP-AES.
as §1, with “metal” for “Gd or Dy”

[5] = Determination of the T1-relaxivity with a Minispec pc 20 in human plasma; assay type: physicochemical; settings: for R^1 (T^1-relaxivity): 0.47 T (20 MHz), 37° C., human plasma, normalized to one metal atom; for relaxivity r1,plasm: plasma
Protocol: Determination of the T^1 -Relaxivity of Selected Compounds
The relaxivity of the following compounds was determined
with a Minispec pc 20 (20 MHz, 0.47 T) at 37° C. in human plasma
and compared to that of Gd-DTPA-polylysine and Magnevist^(R) as
comparison substances. Since the substances according to the
invention contain more than one metal atom, the relaxivity was
normalized to one metal atom for purposes of comparison.

[6] = rat, in vivo; cited from earlier work
[7] = cited from earlier work
[8] = Contrast-medium-supported MR angiography; assay type: in vivo, rats; settings: one-time i.v. 50 or 100 μmol/kg, 2.0 tesla
Protocol: The studies on contrast-medium-supported MR angiography were performed on an experimental MRT system (SISCO SIS 85, 2.0 tesla) with a 3 D FLASH technique (10/2.6/40°).
To determine the effectiveness of contrast media for visualizing blood vessels, anesthetized (Rompun®+Ketavet®, 1+1, v/v; ≈1 ml per kg of body weight, i.m.) rats (Han. Wistar; ≈200 g of body weight) were studied by MR tomography.
The MIP (maximum intensity projection) images were calculated from the 3 D FLASH experiments before (left) and directly after one-time i.v. administration of 50 μmol/kg (center) or 100 μmol/kg (right) of the substance of Example 1g.

[9] = In-vivo comparison with an intravascular and an extracellular contrast medium in blocked kidneys (diffusibility); design: species or system rats; settings: for Percentage of the dose that remains in the blood space: i.v., blocked renal vessels, compound 2 set at 100%
Protocol: As test animals, three 250 g male (Schering-SPF) rats were used. The renal vessels in the animals were blocked to prevent renal elimination and, assuming that fecal elimination is negligible, to obtain a measure of the diffusibility of the formulation according to the invention from the blood into the surrounding tissue. 0.5 ml (in each case 10 mmol/l) of the following contrast medium solution was intravenously administered per animal: a mixture consisting of 1 part each of the compound of Example 1g, named compound 1 below, of intravascular contrast medium Eu-DTPA-albumin, named compound 2 below and of extracellular contrast medium Dy-DTPA, named compound 3 below. Via a catheter in the common carotid artery, blood samples were taken at the following times: 15, 30, 45, 60, 90 seconds; 3, 5, 10, 15 minutes p.i. In the blood samples that were obtained, in each case the concentrations of gadolinium (Gd), europium (Eu) and dysprosium (Dy) were measured in parallel using atom emission spectrometry (ICP-AES). The proportion of the intravascular contrast medium compound 2 (Eu) that remains in the blood space was set at 100%. It was possible to compare the proportion of the formulation according to the invention of compound 1 (Gd) and compound 3 (Dy, extracellular comparison substance) that remained in the blood space by the different labeling in the same animal, and the proportion was set as a percentage of the concentration of compound 2.

[10] = Table 4, i.v. ≈100 μmol metal/kg
[11] = Table 3, i.v. ≈100 μmol metal/kg

Compound: 1,4,7-Tris{1,4,7-tris(N-carboxylatomethyl)-10-[N-(4,7-diaza-3,6,9-trioxo)-nonane-2,9-diyl]-1,4,7,10-tetraazacyclododecane, Gd complex}-10-[N-acetyl-(2-amino-N-ethyl-N-perfluoro-octylsulfonyl)]-1,4,7,10-tetraazacyclododecane [Example 19]
- concentration ([1]; 30 minutes p.i., read-out: Gd concentration, blood): 24 ± 3 µM
- concentration ([1]; 30 minutes p.i., read-out: Gd concentration, iliac lymph nodes): 50 ± 18 µM
- concentration ([1]; 30 minutes p.i., read-out: Gd concentration, inguinal profund lymph nodes): 43 ± 41 µM
- concentration ([1]; 30 minutes p.i., read-out: Gd concentration, popliteal lymph nodes): 345 ± 319 µM
- concentration ([1]; 30 minutes p.i., read-out: Gd concentration, urine): 261 ± 167 µM
- concentration ([1]; 90 minutes p.i., read-out: Gd concentration, blood): 25 ± 4 µM
- concentration ([1]; 90 minutes p.i., read-out: Gd concentration, iliac lymph nodes): 20 ± 8 µM
- concentration ([1]; 90 minutes p.i., read-out: Gd concentration, inguinal profund lymph nodes): 9 ± 2 µM
- concentration ([1]; 90 minutes p.i., read-out: Gd concentration, popliteal lymph nodes): 75 ± 20 µM
- concentration ([1]; 90 minutes p.i., read-out: Gd concentration, urine): 348 ± 119 µM
- Gadolinium content in the organs, kidneys [2]: 0.06 ± 0.04 % dose
- Gadolinium content in the organs, liver [2]: 0.09 ± 0.09 % dose
- Gadolinium content in the organs, spleen [2]: 0.00 ± 0.01 % dose
- Gadolinium concentration at the injection site (paw) ([3]; 30 minutes p.i.): 48.4 ± 10.4 % of dose
- Gadolinium concentration at the injection site (paw) ([3]; 90 minutes p.i.): 8.0 ± 1.7 % of dose
- Gadolinium concentration at the injection site (paw) ([3]; 7 days p.i.): 0.7 ± 0.6 % of dose
- Distribution volume Vss (MEAN) [4, 10]: 0.12 Ukg
- Elimination half-life tβ (MEAN) [4, 10]: 1.49 h
- Total clearance CLtot (MEAN) [4, 10]: 0.94 mL·kg·min
- tα (MEAN) [4, 10]: 2.52 min
- distribution volume in comparison to Dy-DTPA [4]: smaller distribution volume
- elimination from the blood in comparison to Dy-DTPA [4]: significantly slower elimination from the blood
- R^1 (T^1-relaxivity) [5]: 21.4 L/mmol/s
- relaxivity r1,plasm [5]: ≈ 19.5 l*mmol^-1 *s^-1

Compound: Gd-DTPA-polylysine [reference compound]
- excretion route [6]: excreted through the kidneys unaltered by glomerular filtration
- R^1 (T^1-relaxivity) [5]: 16.8 L/mmol/s

Compound: albumin-Gd-DTPA
- concentration in the liver tissue ([7]; 24 hours after intravenous injection): ~30 % of the dose
- dose eliminated ([7]; within 24 hours): 20 % of the dose

Compound: CC(C(=O)NCC(=O)NCC(=O)N1CCN(C(=O)CNC(=O)CNC(=O)C(C)N2CCN(CC(=O)[O-])CCN(CC(=O)[O-])CCN(CC(=O)[O-])CC2)CCN(C(=O)COCCC(F)(F)C(F)(F)C(F)(F)C(F)(F)C(F)(F)C(F)(F)C(F)(F)C(F)(F)F)CCN(C(=O)CNC(=O)CNC(=O)C(C)N2CCN(CC(=O)[O-])CCN(CC(=O)[O-])CCN(CC(=O)[O-])CC2)CC1)N1CCN(CC(=O)[O-])CCN(CC(=O)[O-])CCN(CC(=O)[O-])CC1.[Gd+3].[Gd+3].[Gd+3] (centres unmarked) [Example 1g, 1,4,7-Tris{,1,4,7-tris(N-carboxylatomethyl)-10-(N-1-methyl-3,6-diaza-2,5,8-trioxo-octane-1,8-diyl)-1,4,7,10-tetraazacyclododecane, Gdcomplex}-10-(N-2H,2H,4H,4H,5H,5H-3-oxa-perfluoro-tridecanoyl)-1,4,7,10-tetraazacyclododecane]
- signal in the blood vessels in MR angiography (3 D FLASH, MIP) [8]: pronounced signal increase in the blood vessels
- Percentage of the dose that remains in the blood space ([9]; 30 seconds p.i.): 84%
- Percentage of the dose that remains in the blood space ([9]; 3 minutes p.i.): 62%
- Percentage of the dose that remains in the blood space ([9]; 10 minutes p.i.): 44%
- diffusibility from the vascular space into the surrounding tissue ([9]; compared with compound 2 and compound 3, listed as compound 1): slower during the entire test period; also recorded: significantly lower compared to the free diffusible, extracellular compound 3
- Distribution volume Vss (MEAN) [4, 11]: 0.09 Ukg
- Elimination half-life tβ (MEAN) [4, 11]: 2.813 h
- Total clearance CLtot (MEAN) [4, 11]: 0.41 mU (min*kg)
- tα (MEAN) [4, 11]: 4.06 min
- distribution volume in comparison to Dy-DTPA [4]: smaller distribution volume
- elimination from the blood in comparison to Dy-DTPA [4]: significantly slower elimination from the blood
- R^1 (T^1-relaxivity) [5]: 19.5 L/mmol/s
- relaxivity r1,plasm [5]: ≈ 19.5 l*mmol^-1 *s^-1

— patent US6019959A, “Oligomeric compounds that contain perfluoroalkyl, process for their production, and their use in NMR diagnosis” (Schering Aktiengesellschaft, priority 1998, dated 2000)
